B1: sim3: SUMOylation-deficient mutant of NPR1 (protein)
chain: MDTTIDGFADSYEISSTSFVATDNTDSSIVYLAAEQVLTGPDVSALQLLSNSFESVFDSPDDFYSDAKLVLSDGREVSFHRCVLSARSSFFKSALAAAKKEKDSNNTAAVKLELKEIAKDYEVGFDSVVTVLAYVYSSRVRPPPKGVSECADENCCHVACRPAVDFMLEVLYLAFIFKIPELITLYQRHLLDVVDKVVIEDTLVILKLANICGKACMKLLDRCKEIIVKSNVDMVSLEKSLPEELVKEIIDRRKELGLEVPKVKKHVSNVHKALDSDDIELVKLLLKEDHTNLDDACALHFAVAYCNVKTATDLLKLDLADVNHRNPRGYTVLHVAAMRKEPQLAASALEKGASASEATLEGRTALMIAKQATMAVECNNIPEQCKHSLKGRLCVEILEQEDKREQIPRDVPPSFAVAADELKMTLLDLENRVALAQRLFPTEAQAAMEIAEMKGTCEFIVTSLEPDRLTGTKRTSPGVKIAPFRILEEHQSRLKALSKTVELGKRFFPRCSAVLDQIMNCEDLTQLACGEDDTAEKRLQKKQRYMEIQETLKKAFSEDNLELGNSSLTDSTSSTSKSTGGKRSNRKLSHRRR
modifications: left off: small tags and cut ends
notes: SUMOylation-deficient mutant of NPR1

Legend:
[1] = tested on: EDS1; test: Interaction with EDS1 (co-IP in planta, pull-down in E. coli); format: binding, Arabidopsis thaliana; conditions: in planta (1 mM SA 5 hr) and in E. coli
Text: Plasmid construction and E. coli-based ubiquitination: The coding sequences for all Arabidopsis genes were amplified from cDNA. Point mutations of AtNPR1 (AT1G64280) were generated using the QuikChange II site-directed mutagenesis kit (Agilent). Overlap PCR was used to generate the deletion/truncation mutations of AtCUL3A (AT1G26830) and AtNPR1. The WT and mutated coding sequences for all genes and gene fusions were sub-cloned into the pDONR207 gateway donor vector and confirmed by sequencing. The obtained entry vectors were recombined into either plant or E. coli destination vectors without or with an N- or C-terminal tag. For in planta expression, genes were recombined into the plant binary vectors pK7FWG2, pSITE-4NB and pLN462 to generate C-terminal eGFP, mCherry and HA fusions, respectively; into pK7WGF2, pEG201, pEG202, pEG203 and pEG204 to generate N-terminal eGFP, HA, FLAG, Myc and V5 fusions, respectively. […] For bimolecular fluorescence complementation (BiFC), entry vectors carrying the coding sequences of genes and their mutant variants were recombined into the pSITE-cEYFP-N1 binary vector for C-terminal fusion with the cYFP half (YC), or into the pSITE-nEYFP-C1 for N-terminal fusion with the nYFP half (YN). […]

[2] = tested on: total protein ubiquitination; test: Total ubiquitination in N. benthamiana expressing CUL3 and NPR1 or sim3; format: cell-based, Nicotiana benthamiana
Method: Protein analysis and IP. Recombinant protein analysis was performed using transient expression in N. benthamiana, or stable over-expression in transgenic Arabidopsis, or expression in E. coli. Total protein extraction from plants was performed by homogenizing leaf tissue in the plant extraction buffer [50 mM Tris-HCl (pH 7.5), 150 mM NaCl, 5 mM EDTA, 0.2% Triton X-100, 0.2% Nonidet P-40] supplemented with 1 mM PMSF, 100 μM MG132, and EDTA-free protease inhibitor cocktail (Roche). For ubiquitinated protein analysis in plants, 100 μM of DUB (deubiquitinase) inhibitor (LifeSensors) and 10 mM NEM were added. Next, the lysates were cleared by centrifugation at 14,000 rpm for 15 min followed by filtering through a 0.2 μm filter. […] Pull-downs or IP experiments were done on total protein extracts by incubating protein samples in the lysis buffer overnight with indicated affinity tag or antibody conjugated to agarose or magnetic beads: GFP-trap agarose beads (Chromotek) for GFP fusions; RFP-trap agarose beads (Chromotek) for mCherry fusions; anti-HA magnetic beads (ThermoFisher) for HA tag fusions; anti-DYKDDDDK coupled magnetic agarose (ThermoFisher) for FLAG tag fusions; and glutathione magnetic agarose (ThermoFisher) for GST fusions. Unless otherwise indicated, after pull-down/IP, beads were washed 3 times and proteins were eluted by boiling in the 2×SDS sample buffer. […]

Molecule | interaction with EDS1 [1] | total protein ubiquitination under dose response to SA ([2]; 3 mM SA) | baseline SA-dependent ubiquitination ([2]; compared with NPR1)
NPR1: wild-type Arabidopsis thaliana NPR1 protein, positive regulator of systemic acquired resistance | direct interaction | – | –
O=C(O)c1ccccc1O [SA, salicylic acid] | – | reduction in ubiquitination | –
B1 | could interact | – | lower

From patent publication US20230227838A1, “ENHANCED CELL SURVIVAL AGAINST BIOTIC AND ABIOTIC STRESSES THROUGH SALICYLICK ACID-INDUCED NPR1 CONDENSATES” (priority 2020, published 2023)
